Where a SMILES comes first, the peptide text is derived from it. [ ]: non-standard residue; d: D form. pY = N[C@@H](Cc1ccc(OP(=O)(O)O)cc1)C(=O)O

Results on 2 compounds are retold here after article PMC7294595 (Bioorganic & medicinal chemistry, 2020).

The target in test [1] is STAT3-gp130 phosphopeptide interaction (STAT3 SH2 domain) (Homo sapiens, UniProt P40763). Description: Competition fluorescence polarization assay. On the technique in general: Fluorescence polarisation rises when a labelled molecule tumbles more slowly, as on binding a larger partner.
Test [2] deals with STAT3:DNA binding. Conditions: electrophoretic mobility shift assay measuring STAT3:DNA binding; cited from earlier work. A general note: In EMSA bound probe runs differently from free probe, usually more slowly.

Sequence of STAT3-gp130 phosphopeptide interaction (STAT3 SH2 domain) (P40763 127-711): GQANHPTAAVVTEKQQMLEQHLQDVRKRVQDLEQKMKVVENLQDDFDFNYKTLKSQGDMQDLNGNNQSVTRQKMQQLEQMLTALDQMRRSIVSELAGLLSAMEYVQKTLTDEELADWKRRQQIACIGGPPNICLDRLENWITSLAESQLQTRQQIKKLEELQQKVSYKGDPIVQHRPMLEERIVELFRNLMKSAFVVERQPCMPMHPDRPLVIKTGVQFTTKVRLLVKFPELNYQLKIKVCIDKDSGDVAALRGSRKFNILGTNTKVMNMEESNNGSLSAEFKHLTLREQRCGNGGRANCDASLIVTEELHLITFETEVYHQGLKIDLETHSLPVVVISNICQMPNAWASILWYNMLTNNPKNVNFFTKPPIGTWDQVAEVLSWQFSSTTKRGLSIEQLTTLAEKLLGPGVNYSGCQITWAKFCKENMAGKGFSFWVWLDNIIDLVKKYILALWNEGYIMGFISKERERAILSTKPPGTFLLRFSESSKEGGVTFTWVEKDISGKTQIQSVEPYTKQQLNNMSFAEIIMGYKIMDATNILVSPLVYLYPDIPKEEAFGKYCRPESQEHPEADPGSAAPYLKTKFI

As for `CC(=O)NCC(=O)N[C@@H](Cc1ccc(OP(=O)(O)O)cc1)C(=O)N[C@@H](CC(C)C)C(=O)N1CCC[C@H]1C(=O)N[C@@H](CCC(N)=O)C(=O)N[C@H](C(=O)N[C@H](C(N)=O)C(C)C)[C@@H](C)O` [ac-pTyr] (Ac-G[pY]LPQTV-NH2), the half-inhibitory concentration (IC50) (usually the concentration that gives 50% inhibition) in test [1] came out at 0.61 µM.
On to “Ac-G[pY]LPQTV-NH2 [gp130-derived phosphopeptide]”, for which the IC50 in test [2] was 0.15 µM.
